Test results as given in patent US20140271922A1, “PIRENZEPINE AS AN AGENT IN CANCER TREATMENT” (PROTEOSYS AG, priority 2009, published 2014).
“Also recorded” adds a separate entry of the source.

System: Human H460 Large Cell Lung Cancer (NCI-H460 human NSCLC cells)
Assay: Tumor growth in the H460 lung tumor xenograft model
Format: in vivo, Female NMRI nude mice
Settings: for effect on tumor growth, single agent (in words): PSY 310 alone, 50 mg/kg/d po, 50 mg/kg/day; for potentiation of the cytostatic effects of cisplatin (in words): PSY 310 po co-administered with cisplatin ip
Procedure: PSY 310 was tested with 2 different dosing schedules of cisplatin. • Animals: Female NMRI nude mice (Janvier, Le Genest St Isle, France), age: 6-7 weeks at start of experiment Janvier, Le Genest St Isle, France; age 5-6 weeks). 70 animals were inoculated at the beginning of the experiment. • Cells: Human H460 Large Cell Lung Cancer (ATCC: HTB-177); • 3×10^6 cells from cell culture was inoculated subcutaneously per mouse in a volume of 200 μl on day 0. • Application route: subcutaneously; • 1 tumor/mouse • Tumor volume at • start of therapy: 62.5-100 mm^3 • (formula: a×b^2×0.5; a: length, b width) • Test compounds: Cisplatin, • PSY 310 (Pirenzepine) • Dosing: Cisplatin • 1) high dose: 1×/week, 2 weeks (days 7, 14) • dose: 2.5 mg/kg/day; route: ip • 2) low dose 5×/week, 2 weeks (days 7-11+14-18) • dose: 0.15 mg/kg/day; route: ip • PSY 310 • 1×/day for 12 days (days 7-19) • dose: 50 and 20 mg/kg/day; route: po • Vehicle/solvent: Cisplatin:water for injection • PSY 310: PBS, oral gavage • Application volume: 10 ml/kg • Criteria for study termination: Animal weight loss >20% • Tumor >10% body weight or ulceration of tumors • Parameters: […] [table] [table] NCI-H460 human NSCLC cells were implanted in the flanks of immunodeficient mice and growth of the resultant solid tumors was recorded. Mice were assigned to seven treatment groups as indicated above. Tumor dimensions (and animal body weights) were measured on days 10, 14, 17, and 21 after inoculation, and tumor volumes were calculated. As tumor growth was close to exponential evaluations were performed on the common logarithms of tumor volumes in order to render the data suitable for evaluation by a linear model. […] Alternatively, the ratios log(volume)/log(initial volume) were employed, yielding very similar results. Tumors with extremely small initial volumes (<20 μl) in which volume measurements are expected to be rather imprecise were omitted from the evaluations. Comparisons were carried out in the following way: • The slopes of log(volume) over time (i.e. the exponent of the approximately exponential volume growth) were determined for each animal. The ratios of the exponents averaged over the respective groups are given as a measure of the magnitude of the growth retarding effect of the current treatment. • Multivariate variance analyses using the day of measurement and Cisplatin/PSY 310 treatment as model effects were performed.

Row | SMILES | exponent ratio (ratio of group-averaged slopes of log(tumor volume) over time) (Cisplatin high (2.5 mg/kg/day ip) versus Cisplatin low (0.15 mg/kg/day ip), ANOVA p = 0.91) | exponent ratio (ratio of group-averaged slopes of log(tumor volume) over time) (Cisplatin high (2.5 mg/kg/day ip, 1x/week, 2 weeks) versus Control, ANOVA p = 0.014) | exponent ratio (ratio of group-averaged slopes of log(tumor volume) over time) (Cisplatin low (0.15 mg/kg/day ip, 5x/week, 2 weeks) versus Control, ANOVA p = 0.077) | effect on tumor growth of cisplatin alone (in words) (cisplatin ip, low and high dose regimens) | exponent ratio (ratio of group-averaged slopes of log(tumor volume) over time) (PSY 310 50 mg/kg/day po alone (1x/day, 12 days) versus Cisplatin high, ANOVA p = 0.016) | exponent ratio (ratio of group-averaged slopes of log(tumor volume) over time) (PSY 310 50 mg/kg/day po alone (1x/day, 12 days) versus Control, ANOVA p = 0.0003) | effect on tumor growth, single agent (in words) | effect on tumor growth, single agent (in words) (listed as Pirenzepine) | potentiation of the cytostatic effects of cisplatin (in words) | potentiation of the cytostatic effects of cisplatin (in words) (listed as Pirenzepine)
1 | N.N.[Cl][Pt][Cl] [Cisplatin] | 0.96 | 0.81 | 0.85 | moderate effects |  |  |  |  |  | 
2 | CN1CCN(CC(=O)N2c3ccccc3C(=O)Nc3cccnc32)CC1 [PSY 310] |  |  |  |  | 0.74 | 0.61 | even more effective than cisplatin-low dose and cisplatin-high dose regimens; also recorded: single agent cytostatic properties; also recorded: major effect | significant anti-cancer activity by itself | potentiating the cytostatic effects of cisplatin | significant potentiating anti-cancer activity
